Data taken from patent publication US6589985B2, “Carbamate compounds for use in preventing or treating movement disorders” (Ortho-McNeil Pharmaceutical, Inc., priority 2001, dated 2003).

Assays:
[1] = tested on: harmaline-induced tremor; experiment: Harmaline-induced tremors in rats; type: in vivo, Sprague-Dawley rats; conditions: for Tremor Score Median: harmaline 6 mg/kg i.p. 60 min later, observed 30 min, vehicle median 6.00, p<0.01 vs vehicle
Text: Harmaline-induced tremor in rats is a commonly accepted animal model that is predictive of essential tremor and related movement disorders in human (Miwa H, et. al., Differential expression of c-Fos following administration of two tremorgenic agents: harmaline and oxotremorine, NeuroReport, 2000, 11 (11), 2385-2390; Stanford J A and Fowler S C, At low doses, harmaline increases forelimb tremor in the rat, Neurosci. Lett., 1998, 241 (1), 41-44; Sinton C M, The effectiveness of different isomers of octanol as blockers of harmaline-induced tremor, Pfluegers Arch., 1989, 414 (1), 31-6).
An enantiomer of Formula (Ib) was evaluated for efficacy in treating essential tremor and related movement disorders with doses up to 30 mg/kg. The enantiomer of Formula (Ib) or vehicle (0.5% hydroxypropyl methylcellulose) was administered orally by gavage in a dose volume equivalent to 5 mL/kg to Sprague-Dawley rats (135 to 275 g). Harmaline (6 mg/kg in volume of 5 mL/kg, i.p.) was administered 60 min thereafter. Immediately after the harmaline administration, rats were placed individually in a blinded fashion in plastic cages on wood-chip bedding and observed for 30 minutes. Appearance of tremors was scored using a nine-item checklist. The checklist includes scoring for: tremors at rest, tremors during locomotion, intermittent tremors, continuous tremors, tremors provoked by tail-restraint, generalized tremors (head, body and tail), tremors of the head only, tremors of the body only and tremors of the tail only. Signs observed in rats treated with vehicle or test compound are compared by ranking tremor quality and severity.
Tremor provoked following tail-restraint was assigned a score =1. Tremors that appear continuously were assigned a score =2, while tremors that appear intermittently were assigned a score =1. The appearance of generalized tremors were assigned a score =2, while a score =1 was assigned to tremor that involves only the head, body or tail of the rat. The severity of tremor is scored subjectively as mild in intensity or as moderate or marked. […]

[2] = tested on: essential tremor; conditions: nine patients with essential tremor; cited from earlier work
[3] = tested on: essential tremor; conditions: open-label report, essential tremor patients; cited from earlier work

Structure (SMILES): NC(=O)OC[C@@H](O)c1ccccc1Cl [Formula (Ib)]
- Tremor Score Median ([1]; 20 mg/kg p.o.): 2.00
- Tremor Score Median ([1]; 30 mg/kg p.o.): 1.20
- reduction in the tremor score in drug-treated groups compared to the vehicle-treated group ([1]; Kruskal-Wallis nonparametric one-way method, rats, p.o.): significant

Structure (SMILES): CC1(C)O[C@@H]2[C@@H](CO[C@@]3(COS(N)(=O)=O)OC(C)(C)O[C@@H]23)O1 [Topiramate]
- patient self-rating after topiramate therapy [2]: Eight patients rated themselves as better and with less disability

Structure (SMILES): NCC1(CC(=O)O)CCCCC1 [gabapentin, Gabapentin]
- effect on tremor [3]: reduced tremor in five patients
